Entries after “also recorded” stand apart in the source; their conditions may differ.
Legend:
diabetic db/db mice = assay: Erectile responses in type 2 diabetic db/db mice; format: in vivo, mouse; conditions: intravenous infusion 1 mg/kg, n=7, versus vehicle
Description: FIG. 1. Original traces show increased intracavernosal pressure induced by the cavernous nerve's electrical field stimulation (EFS). […] E-G) Frequency, duration, and magnitude of spontaneous erections after intravenous infusion of vehicle, IP2015 0.1 mg/kg, 1 mg/kg, or 10 mg/kg. The effect on EFS is reported in the supplementary data file. (H-J) Intravenous infusion of vehicle and IP2015 (1 mg/kg) in diabetic db/db mice. IP2015 increased H) frequency, I) duration and J) the magnitude of spontaneous erectile responses in db/db mice (n=7). The results are means±s.e.mean. *P<0.05 versus vehicle control.
To investigate the effects of IP2015 in a simple model of erectile dysfunction, before dissecting its underlying pharmacology in vivo, we assessed its effects in a type-2 diabetic mouse model. Type 2 diabetic db/db mice have decreased erectile function compared to normal C57BL/6 mice and heterozygous db/+ control mice.

male patients with ED = assay: RigiScan assessment during visual stimulus challenge in male patients with ED; format: in vivo, human; parameters: individual RAU value at the base / individual TAU value at the tip / individual RAU value at the tip / individual TAU value at the base: unit not given here
Description: The RigiScan Plus Monitor consists of two loops, one to be placed around the base of the penis and the other towards the tip. The ambulatory monitor uses tip and base penile loops that adjust by tightening slightly at discrete time intervals to measure and record penile rigidity and tumescence. Each loop contains a cable that moves freely inside a conduit. Each loop takes a measurement every 15 seconds. The loop gently tightens with a linear force of 4 ounces (114 g) and then immediately releases and the tissue rebounds to its unloaded state. The RigiScan Plus Monitor then takes a tumescence measurement. After the tumescence measurement is taken, it is compared to the previous samples. When a 6 mm increase in tumescence is detected, representing possible erectile activity, the RigiScan Plus Monitor takes a second measurement every 30 seconds. After tumescence is measured, the loops tighten a second time around the circumference of the penis with a linear force of 10 ounces (283.5 g). The RigiScan Plus Monitor takes a measurement when this force is applied to record a cross sectional response to radial compression. This is how rigidity is measured^1. Data were recorded on a monitor strapped to the thigh of the subjects/participants and downloaded onto a computer after the recording session. Subjects/participants were instructed on how to self-apply the RigiScan Plus Monitor by the Investigator and were advised to wear loose fitting clothing during the residential stay at the unit.
The study was an exploratory Phase II, randomised, placebo-controlled, double-blind, crossover study, investigating the effects of a single oral dose of IP2015 on erectile function in males with ED. A dose level of 10 mg was selected. Patients were enrolled into two cohorts. Both cohorts participated in two periods (Period 1 and Period 2) and received a single dose of IP2015 and a single dose of placebo.
Patients were assessed for efficacy using the RigiScan Plus Monitor during the stimulus challenge at predose and 1, 4 and 8-hour postdose on Day 1 of each treatment period.
The design of the stimulus challenge is outlined in FIG. 3. Predose and 1, 4 and 8-hour postdose, the patients were asked to watch a 20-minute digital clip in a private room. The digital clip consisted of a 10-minute neutral digital clip followed by a 10-minute digital clip consisting of heterosexual pornography. The study staff started the digital clip and then left the room, during which there was a 1-minute delay before the neutral digital clip commenced. The neutral and pornographic digital clip were different at each assessment. RigiScan assessments were recorded through the assessment period. The RigiScan Plus Monitor was applied for approximately 20 minutes on each occasion. The patient was semi-recumbent during the assessment.
The RigiScan measurement parameters were treated as efficacy outcomes and calculated in a similar fashion as in Example 2.
Effects of IP2015 on PD parameters were analysed with a generalised mixed regression model using a PD parameter as responsible variable, treatment (active and placebo), timepoint, period (1 and 2), sequence (active-placebo, placebo-active), interaction between treatment and timepoint as mixed effects, baseline measurements as a covariate, and patient as a random effect. This model was applied to each PD parameter. The treatment difference between active and placebo at different timepoints together with 95% CIs was derived from the generalized mixed regression model. For a continuous outcome, treatment difference was measured as the difference in LS mean; for a binary outcome, treatment difference was measured as the odds ratio. In case of model non-convergence due to small sample size at some timepoints, those timepoints could be pooled with neighbouring timepoints.

[1] = 10 mg, 4 hours postdose, N = 12
[2] = 10 mg, 4 hours postdose, statistically significant

## COc1cc2ccc(OC3CC4CCC(C3)N4)cc2oc1=O (stereo not shown) [IP2015, 7-[(8-azabicyclo[3.2.1]octan-3-yl)oxy]-3-methoxy-chromen-2-one]
Diabetic db/db mice
  frequency, duration, and magnitude of erectile responses: significantly increased the frequency, duration, and magnitude of erectile responses; also recorded: increased the number of erections
Male patients with ED; 10 mg, 1 hour postdose, 95% CI: 0.02, 1.05, significantly higher
  baseline circumference at the tip, LS mean difference compared to placebo: 0.53
Male patients with ED; 10 mg, 4 hours postdose
  Average event rigidity, Base, LS Mean Difference of IP2015 − Placebo: 6.92%
  Average event rigidity, Tip, LS Mean Difference of IP2015 − Placebo: 10.21%
  Average events of tumescence, Base, LS Mean Difference of IP2015 − Placebo: 1.05
  Average events of tumescence, Tip, LS Mean Difference of IP2015 − Placebo: 1.05
  Baseline circumference, Base, LS Mean Difference of IP2015 − Placebo: −0.28
  Baseline circumference, Tip, LS Mean Difference of IP2015 − Placebo: −0.21
  Event duration, LS Mean Difference of IP2015 − Placebo: 8.20 % of session
  RAU, Base, LS Mean Difference of IP2015 − Placebo: 2.33
  TAU, Tip, LS Mean Difference of IP2015 − Placebo: 1.42
  Time rigid 80-100%, Base, LS Mean Difference of IP2015 − Placebo: 0.03
  Total event duration, LS Mean Difference of IP2015 − Placebo: 0.05 min
  Total events, LS Mean Difference of IP2015 − Placebo: 0.03
  time rigid 80%-100% at the tip, RAU at the tip and TAU at the base versus placebo: statistically significant compared to placebo
Male patients with ED; 10 mg, 4 hours postdose, 12 patients
  patients appearing to respond to treatment (individual RAU and TAU values): 3
Male patients with ED; [1]
  Average event rigidity, Base, Mean (SD): 20.83 (30.61) %
  Average event rigidity, Tip, Mean (SD): 19.58 (29.42) %
  Average events of tumescence, Base, Mean (SD): 3.49 (4.35)
  Average events of tumescence, Tip, Mean (SD): 3.33 (4.16)
  Baseline circumference, Base, Mean (SD): 7.21 (1.54)
  Baseline circumference, Tip, Mean (SD): 6.82 (1.16)
  Event duration, Mean (SD): 17.75 (27.72) % of session
  RAU, Base, Mean (SD): 3.50 (6.82)
  RAU, Tip, Mean (SD): 3.25 (6.25)
  TAU, Base, Mean (SD): 2.83 (4.97)
  TAU, Tip, Mean (SD): 2.17 (3.59)
  Time rigid 80-100%, Base, Mean (SD): 0.04 (0.11)
  Time rigid 80-100%, Tip, Mean (SD): 0.04 (0.10)
  Total event duration, Mean (SD): 0.09 (0.14) mins
  Total events, Mean (SD): 0.42 (0.51)
Male patients with ED; [2]
  RAU, Tip, LS Mean Difference of IP2015 − Placebo: 2.54
  TAU, Base, LS Mean Difference of IP2015 − Placebo: 1.95
  Time rigid 80-100%, Tip, LS Mean Difference of IP2015 − Placebo: 0.03
Male patients with ED; Patient 176, 4 hours postdose
  individual RAU value at the base: 21
  individual RAU value at the tip: 19
  individual TAU value at the base: 14
  individual TAU value at the tip: 8
Male patients with ED; Patient 177, 4 hours postdose
  individual RAU value at the base: 14
  individual RAU value at the tip: 13
  individual TAU value at the base: 11
  individual TAU value at the tip: 9
Male patients with ED; Patient 191, 4 hours postdose
  individual RAU value at the base: 4
  individual RAU value at the tip: 5
  individual TAU value at the base: 7
  individual TAU value at the tip: 7

Source: patent US20260216166A1, “COMPOUND FOR TREATMENT OF ERECTILE DYSFUNCTION” (Initiator Pharma A/S, priority 2023, published 2026)
